Measured values reported in ChEMBL document CHEMBL1141008, “Identification of small molecule agonists of the motilin receptor” (Bioorg Med Chem Lett, 2008).

Legend:
Motilin receptor [1] = molecular target: T1, Motilin receptor (Homo sapiens, UniProt O43193); experiment: Intrinsic activity at human recombinant motilin receptor expressed in CHO cells by calcium mobilization-based FLIPR assay relative to motilin; type: functional, cell-based
Stomach [2] = experiment: Increase in electric field stimulated contractile response in New Zealand White rabbit gastric antrum at 10 uM pre-incubated for 15 mins; type: functional, Oryctolagus cuniculus
[3] = Half life in New Zealand White rabbit gastric antrum at 10 uM; type: ADME, tissue-based, Oryctolagus cuniculus, Stomach
[4] = Selectivity for human recombinant motilin receptor over ghrelin receptor in FLIPR assay
[5] = molecular target: Growth hormone secretagogue receptor type 1 (Homo sapiens) (UniProt Q92847); experiment: Activity at ghrelin receptor in human recombinant cells by calcium mobilization-based FLIPR assay
Growth hormone secretagogue receptor type 1 (Homo sapiens), sequence (Q92847 whole entry, looked up): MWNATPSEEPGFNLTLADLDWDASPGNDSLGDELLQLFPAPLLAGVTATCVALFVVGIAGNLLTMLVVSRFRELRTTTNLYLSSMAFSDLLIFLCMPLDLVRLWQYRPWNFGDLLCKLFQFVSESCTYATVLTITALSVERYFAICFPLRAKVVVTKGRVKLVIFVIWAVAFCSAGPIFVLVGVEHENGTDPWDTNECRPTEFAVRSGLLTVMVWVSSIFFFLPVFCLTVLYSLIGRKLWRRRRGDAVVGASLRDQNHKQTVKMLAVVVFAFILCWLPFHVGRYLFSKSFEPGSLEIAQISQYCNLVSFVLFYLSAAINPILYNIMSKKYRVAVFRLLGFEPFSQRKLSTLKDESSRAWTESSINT

Motilin receptor [6] = molecular target: T1, Motilin receptor; experiment: Agonist activity at human recombinant motilin receptor expressed in HEK293 cells by calcium mobilization-based FLIPR assay; type: functional, cell-based
Motilin receptor [7] = molecular target: T1, Motilin receptor; experiment: Agonist activity at human recombinant motilin receptor expressed in CHO cells by calcium mobilization-based FLIPR assay; type: functional, cell-based
Stomach [8] = experiment: Increase in electric field stimulated contractile response in New Zealand White rabbit gastric antrum at 3 uM pre-incubated for 15 mins; type: functional, Oryctolagus cuniculus
[9] = Half life in New Zealand White rabbit gastric antrum at 3 uM; type: ADME, tissue-based, Oryctolagus cuniculus, Stomach
Stomach [10] = experiment: Increase in electric field stimulated contractile response in New Zealand White rabbit gastric antrum at 0.3 uM preincubated for 15 mins; type: functional, Oryctolagus cuniculus
[11] = Half life in New Zealand White rabbit gastric antrum at 0.3 uM; type: ADME, tissue-based, Oryctolagus cuniculus, Stomach

T1 sequence (O43193 whole entry): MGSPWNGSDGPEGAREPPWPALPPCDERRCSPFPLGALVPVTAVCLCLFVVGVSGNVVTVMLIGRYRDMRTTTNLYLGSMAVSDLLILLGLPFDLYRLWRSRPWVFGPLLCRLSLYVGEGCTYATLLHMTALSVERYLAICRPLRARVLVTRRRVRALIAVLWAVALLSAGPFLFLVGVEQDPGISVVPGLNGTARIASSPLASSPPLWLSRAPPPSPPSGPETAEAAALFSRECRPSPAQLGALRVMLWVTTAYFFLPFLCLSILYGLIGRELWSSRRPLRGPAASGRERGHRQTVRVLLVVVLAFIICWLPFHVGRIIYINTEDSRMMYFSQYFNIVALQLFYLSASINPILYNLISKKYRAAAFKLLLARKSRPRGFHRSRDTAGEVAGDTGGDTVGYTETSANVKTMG

Question: For `COc1cccc(CCN(Cc2ccccc2-c2ccc(CN3C[C@@H](C)N[C@@H](C)C3)cc2)C(=O)NC2CCCCC2)c1`, which Activity (Motilin receptor [1]) is on record?
Answer: 1

Question: And the Activity (Stomach [2])?
Answer: 182%

Question: And the half-life at 10 µM [3]?
Answer: 39 min

Question: What about the fold change (FC) [4] of the same compound?
Answer: 10

Question: What about the EC50 [5] of the same compound?
Answer: 126 nM

Question: Which EC50 (Motilin receptor [6]) does the source give for `COCCCN(Cc1ccccc1-c1ccc(CN2CCNCC2)cc1)S(=O)(=O)c1ccc(F)cc1` here?
Answer: 631 nM

Question: Which EC50 (Motilin receptor [7]) does the source give for `COCCCN(Cc1ccccc1-c1ccc(CN2CCN(C)CC2)cc1)C(=O)Cc1ccccc1` here?
Answer: > 12600 nM

Question: Which EC50 (Motilin receptor [7]) does the source give for `COCCCN(Cc1ccccc1-c1ccc(CN2CCCCC2)cc1)C(=O)Cc1ccccc1` here?
Answer: > 12600 nM

Question: Which EC50 (Motilin receptor [7]) does the source give for `COCCCN(Cc1ccccc1-c1ccc(CN2CCN(C(C)=O)CC2)cc1)C(=O)Cc1ccccc1` here?
Answer: > 12600 nM

Question: Which results are given for `COc1cccc(CCN(Cc2ccccc2-c2ccc(CN3CCNCC3)cc2)C(=O)NC2CCCCC2)c1`?
Answer: EC50 (Motilin receptor [6]): 100 nM; EC50 (Motilin receptor [7]): 50.1 nM; Activity (Motilin receptor [1]): 0.9

Question: With `COc1cccc(CCNCc2ccccc2-c2ccc(CN3CCNCC3)cc2)c1` as the compound, how does the EC50 (Motilin receptor [6]) read?
Answer: 5010 nM

Question: Which EC50 (Motilin receptor [6]) does the source give for `COCCCN(Cc1ccccc1-c1ccc(CN2CCNCC2)cc1)C(=O)NC1CCCCC1` here?
Answer: 501 nM

Question: Which EC50 (Motilin receptor [6]) does the source give for `COCCCN(Cc1ccccc1-c1ccc(CN2CCNCC2)cc1)C(C)=O` here?
Answer: 631 nM

Question: Which EC50 (Motilin receptor [6]) does the source give for `COc1cccc(CCN(Cc2ccccc2-c2ccc(CN3CCNCC3)cc2)C(=O)Cc2ccccc2)c1` here?
Answer: 1000 nM

Question: Which Activity (Stomach [8]) does the source give for `CC[C@H]1OC(=O)[C@H](C)[C@@H](O[C@H]2C[C@@](C)(OC)[C@@H](O)[C@H](C)O2)[C@H](C)[C@@H](O[C@@H]2O[C@H](C)C[C@H](N(C)C)[C@H]2O)[C@](C)(O)C[C@@H](C)C(=O)[C@H](C)[C@@H](O)[C@]1(C)O` [ERYTHROMYCIN] here?
Answer: 490%

Question: And the half-life at 3 µM [9]?
Answer: 23 min

Question: What does the source list for `COCCCN(Cc1ccccc1-c1ccc(CN(C)CCN(C)C)cc1)C(=O)Cc1ccccc1`?
Answer: EC50 (Motilin receptor [7]): 3160 nM; Activity (Motilin receptor [1]): 0.4

Question: Which results are given for `COc1cccc(CCN(Cc2ccccc2-c2ccc(CC3CCNCC3)cc2)C(=O)NC2CCCCC2)c1`?
Answer: EC50 (Motilin receptor [7]): 398 nM; Activity (Motilin receptor [1]): 0.6

Question: Which EC50 (Motilin receptor [6]) does the source give for `O=C(NC1CCCCC1)N(CCc1ccccc1)Cc1ccccc1-c1cccc(CN2CCNCC2)c1` here?
Answer: 1580 nM

Question: Which EC50 (Motilin receptor [7]) does the source give for `COCCCN(Cc1ccccc1-c1ccc(CN2CCOCC2)cc1)C(=O)Cc1ccccc1` here?
Answer: > 12600 nM

Question: What does the source list for `COc1cccc(CCN(Cc2ccccc2-c2ccc(N3CCNCC3)cc2)C(=O)NC2CCCCC2)c1`?
Answer: EC50 (Motilin receptor [7]): 5010 nM; Activity (Motilin receptor [1]): 0.9

Question: Which EC50 (Motilin receptor [7]) does the source give for `COCCCN(Cc1ccccc1-c1ccc(CN2CCNCC2)cc1)C(=O)Cc1ccccc1` here?
Answer: 794 nM

Question: What about the Activity (Motilin receptor [1]) of the same compound?
Answer: 0.7

Question: With `COc1cccc(CCN(Cc2ccccc2-c2ccc(CCN3CCNCC3)cc2)C(=O)NC2CCCCC2)c1` as the compound, how does the EC50 (Motilin receptor [7]) read?
Answer: > 12600 nM

Question: With `COCCCN(Cc1ccccc1-c1ccc(C(=O)N2CCNCC2)cc1)C(=O)Cc1ccccc1` as the compound, how does the EC50 (Motilin receptor [7]) read?
Answer: > 3160 nM

Question: Which Activity (Stomach [10]) does the source give for `CC[C@H](C)[C@H](NC(=O)[C@@H]1CCCN1C(=O)[C@@H](NC(=O)[C@@H](N)Cc1ccccc1)C(C)C)C(=O)N[C@@H](Cc1ccccc1)C(=O)N[C@H](C(=O)N[C@@H](Cc1ccc(O)cc1)C(=O)NCC(=O)N[C@@H](CCC(=O)O)C(=O)N[C@@H](CC(C)C)C(=O)N[C@@H](CCC(N)=O)C(=O)N[C@@H](CCCN=C(N)N)C(=O)N[C@@H](CCSC)C(=O)N[C@@H](CCC(N)=O)C(=O)N[C@@H](CCC(=O)O)C(=O)N[C@@H](CCCCN)C(=O)N[C@@H](CCC(=O)O)C(=O)N[C@@H](CCCN=C(N)N)C(=O)N[C@@H](CC(N)=O)C(=O)N[C@@H](CCCCN)C(=O)NCC(=O)N[C@@H](CCC(N)=O)C(=O)O)[C@@H](C)O` [MOTILIN] here?
Answer: 506%

Question: And the half-life at 0.3 µM [11]?
Answer: 9 min
